Results taken from patent US10165789B2, “Acerola powder for use as a substitute for ascorbic acid in the agri-food field” (DIANA NATURALS, priority 2012, dated 2019).
Marks after values point to notes of the source that are not given here.

Legend:
[1] = Overall antioxidant power
[2] = Antiradical activity, trapping of the free radical DPPH; type: biochemical; settings: fixed concentration of 0.44 mg/ml ascorbic acid eq; tested in combination with Mg(OH)2 in the proportions present in the powder of the invention

## O=C1O[C@H]([C@@H](O)CO)C(O)=C1O [Ascorbic acid]
[1]
  Overall antioxidant power: 34 g/100 g of product in ascorbic acid eq
[2]
  Antiradical activity (% of trapping of the free radical DPPH): 70.6* %
